Assay results published in ChEMBL document CHEMBL3769302, “2-Oxo-1,2-dihydropyridinyl-3-yl amide-based GPa inhibitors: Design, synthesis and structure-activity relationship study” (Eur J Med Chem, 2016).

Assays:
[1] = target: T1, Glycogen phosphorylase, muscle form (Oryctolagus cuniculus, UniProt P00489); experiment: Inhibition of rabbit muscle glycogen phosphorylase-a assessed as formation of inorganic phosphate from glucose-1-phosphate by colorimetry
T1 sequence (P00489 whole entry): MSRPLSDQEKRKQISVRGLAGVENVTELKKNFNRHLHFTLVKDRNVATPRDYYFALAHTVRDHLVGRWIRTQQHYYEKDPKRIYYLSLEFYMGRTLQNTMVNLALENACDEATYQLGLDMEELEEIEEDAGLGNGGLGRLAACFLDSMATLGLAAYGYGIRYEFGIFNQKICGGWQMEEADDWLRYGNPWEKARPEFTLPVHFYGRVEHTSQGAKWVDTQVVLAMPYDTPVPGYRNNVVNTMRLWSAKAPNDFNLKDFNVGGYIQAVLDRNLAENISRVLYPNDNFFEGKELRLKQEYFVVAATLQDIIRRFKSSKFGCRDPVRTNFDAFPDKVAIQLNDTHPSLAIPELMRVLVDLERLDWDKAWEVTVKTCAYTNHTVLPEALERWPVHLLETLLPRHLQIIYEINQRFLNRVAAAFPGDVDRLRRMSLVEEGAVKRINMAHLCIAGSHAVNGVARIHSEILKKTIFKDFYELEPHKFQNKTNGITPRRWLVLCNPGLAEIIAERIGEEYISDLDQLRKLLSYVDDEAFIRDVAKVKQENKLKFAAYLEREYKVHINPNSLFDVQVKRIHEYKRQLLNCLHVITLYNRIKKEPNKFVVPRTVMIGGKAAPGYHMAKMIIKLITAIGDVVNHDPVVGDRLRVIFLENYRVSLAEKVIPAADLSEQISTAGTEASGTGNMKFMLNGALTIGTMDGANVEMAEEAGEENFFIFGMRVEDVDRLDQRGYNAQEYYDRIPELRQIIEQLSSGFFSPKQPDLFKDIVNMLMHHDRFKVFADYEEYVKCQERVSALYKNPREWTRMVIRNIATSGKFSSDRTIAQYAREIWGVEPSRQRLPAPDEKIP

[2] = target: T2, Glycogen phosphorylase, muscle form (Oryctolagus cuniculus) (UniProt P00489); experiment: Inhibition of rabbit muscle glycogen phosphorylase-a assessed as formation of inorganic phosphate from glucose-1-phosphate at 222 uM by colorimetry
T2 sequence (whole entry): T1 sequence (P00489 whole entry)

[3] = target: T2, Glycogen phosphorylase, muscle form (Oryctolagus cuniculus); experiment: Inhibition of rabbit muscle glycogen phosphorylase-a assessed as formation of inorganic phosphate from glucose-1-phosphate at 11.1 uM by colorimetry
[4] = target: T2, Glycogen phosphorylase, muscle form (Oryctolagus cuniculus); experiment: Inhibition of rabbit muscle glycogen phosphorylase-a assessed as formation of inorganic phosphate from glucose-1-phosphate at 4.4 mM by colorimetry
[5] = target: T2, Glycogen phosphorylase, muscle form (Oryctolagus cuniculus); experiment: Inhibition of rabbit muscle glycogen phosphorylase-a assessed as formation of inorganic phosphate from glucose-1-phosphate at 440 uM by colorimetry
[6] = target: T2, Glycogen phosphorylase, muscle form (Oryctolagus cuniculus); experiment: Inhibition of rabbit muscle glycogen phosphorylase-a assessed as formation of inorganic phosphate from glucose-1-phosphate at 44 uM by colorimetry
[7] = target: T2, Glycogen phosphorylase, muscle form (Oryctolagus cuniculus); experiment: Inhibition of rabbit muscle glycogen phosphorylase-a assessed as formation of inorganic phosphate from glucose-1-phosphate at 90 uM by colorimetry
[8] = target: T2, Glycogen phosphorylase, muscle form (Oryctolagus cuniculus); experiment: Inhibition of rabbit muscle glycogen phosphorylase-a assessed as formation of inorganic phosphate from glucose-1-phosphate at 20 uM by colorimetry
[9] = target: T2, Glycogen phosphorylase, muscle form (Oryctolagus cuniculus); experiment: Inhibition of rabbit muscle glycogen phosphorylase-a assessed as formation of inorganic phosphate from glucose-1-phosphate at 444 uM by colorimetry

Structure (SMILES)	IC50 ([1]; read-out: IC50) [µM]	inhibition [2] [%]	also measured
O=C(Cn1cccc(NCc2ccc(Cl)c(Cl)c2)c1=O)NCc1ccc(Cl)c(Cl)c1	1.92		
O=C(Cn1cccc(NCc2cccs2)c1=O)NCc1ccc(Cl)c(Cl)c1		73	IC50 ([1]; read-out: IC50(app)): 19.5 µM
O=C(Cn1cccc(NCc2ccccn2)c1=O)NCc1ccc(Cl)c(Cl)c1			IC50 [1]: Not Active
Cc1ccc(S(=O)(=O)Nc2cccn(CC(=O)NCc3ccc(Cl)c(Cl)c3)c2=O)cc1		37	
O=C(Cn1cccc(NCc2ccc(Cl)c(Cl)c2)c1=O)NCCc1ccc(Cl)c(Cl)c1			inhibition [3]: 98%; IC50 ([1]; read-out: IC50(app)): 22.5 µM
O=C(Cn1cccc(NCc2cccc(Cl)c2)c1=O)NCc1ccc(Cl)c(Cl)c1	5.66		
O=C(Cn1cccc(NCc2ccc(Cl)cc2)c1=O)NCc1ccc(Cl)c(Cl)c1	2.1		
O=C(Cn1cccc(NCCCc2ccccc2)c1=O)NCc1ccc(Cl)c(Cl)c1			inhibition [4]: 33%
CCOC(=O)Cn1cccc(NCc2ccc(Cl)cc2)c1=O		75	
O=C(Cn1cccc(NCc2ccc(Cl)c(Cl)c2)c1=O)Nc1ccccc1			inhibition [5]: 19%
CCOC(=O)Cn1cccc(NCc2cccn2S(=O)(=O)c2ccc(C)cc2)c1=O		75	
O=C(Cn1cccc(NCc2ccc(Cl)c(Cl)c2)c1=O)NCCc1ccc(Cl)cc1Cl			inhibition [6]: 22%
CCOC(=O)Cn1cccc(NCc2ccc(Cl)c(Cl)c2)c1=O		43	
O=C(Cn1cccc(NCc2ccccc2)c1=O)Nc1ccc(Cl)c(Cl)c1			inhibition [7]: 41%
O=C(Cn1cccc(NCc2cccc(Cl)c2)c1=O)Nc1ccc(Cl)c(Cl)c1			inhibition [8]: 33%
Cc1ccc(S(=O)(=O)n2cccc2CNc2cccn(CC(=O)NCc3ccc(Cl)c(Cl)c3)c2=O)cc1	3.4		
O=C(Cn1cccc(NCc2ccc(Cl)c(Cl)c2)c1=O)Nc1ccc(Cl)c(Cl)c1		98	IC50 ([1]; read-out: IC50(app)): 18.5 µM
O=C(Cn1cccc(NCc2ccccc2Cl)c1=O)Nc1ccc(Cl)c(Cl)c1	57		
O=C(Cn1cccc(NCc2ccccc2)c1=O)Nc1ccccc1			IC50 [1]: Not Active
O=C(Cn1cccc(NCc2ccc([N+](=O)[O-])cc2)c1=O)NCc1ccc(Cl)c(Cl)c1			inhibition [3]: 100%; IC50 ([1]; read-out: IC50(app)): 2.5 µM
CCCNC(=O)Cn1cccc(NCc2ccc(Cl)c(Cl)c2)c1=O		67	
O=C(Cn1cccc(NCc2ccccc2)c1=O)NCCc1ccc(Cl)cc1Cl			inhibition [6]: 93%
O=C(Cn1cccc(NCc2ccc(Cl)cc2)c1=O)Nc1ccc(Cl)c(Cl)c1			IC50 [1]: Not Active
O=C(Cn1cccc(NCc2ccccc2)c1=O)NCCc1ccc(Cl)c(Cl)c1			inhibition [9]: 80%
O=C(Cn1cccc(NC(=O)c2ccccc2)c1=O)Nc1ccc(Cl)c(Cl)c1		100	IC50 ([1]; read-out: IC50(app)): 13 µM
O=C(Cn1cccc(NCc2ccccc2Cl)c1=O)NCc1ccc(Cl)c(Cl)c1	18.5	77	

The next lines start with results.

IC50 ([1]; read-out: IC50) [µM]	inhibition [2] [%]	Structure (SMILES)	also measured
10.2		O=C(Cn1cccc(NCc2ccc(Cl)c(Cl)c2)c1=O)NCc1ccccc1	
68		O=C(Cn1cccc(NCCCc2ccccc2)c1=O)NCCc1ccc(Cl)c(Cl)c1	
31.3		O=C(Cn1cccc(NCc2ccc(Cl)c(Cl)c2)c1=O)NCCc1ccccc1	
